From patent US11696914B1 (priority 2019, dated 2023)
Read-outs that look alike come from different tables or passages of the source.

Tests used:
[1] = in vitro; conditions: guinea pig, microsomes
[2] = in vitro; conditions: human, microsomes
[3] = in vitro; conditions: microsomes
[4] = in vitro; conditions: mouse, microsomes
[5] = human, microsomes, 1 h
[6] = microsomes
[7] = human, microsomes
[8] = guinea pig, microsomes
[9] = mouse, microsomes, 1 h, pH 7.4
[10] = guinea pig, pH 7.4
[11] = mouse, microsomes
[12] = system: HeLa cells
[13] = system: Sudan virus; conditions: guinea pig, in vivo; cited from earlier work
[14] = system: SARS-CoV-2; experiment: microbe, parasite or virus in culture; format: cell-based; conditions: Severe acute respiratory syndrome coronavirus 2, A549-ACE2, read-out: IC50 against SARS-CoV-2
[15] = system: EBOV; conditions: human, in vivo; cited from earlier work

## COc1ccc2c(c1)[C@]13CCCC[C@@H]1[C@H](C2)N(C)CC3 [Dextromethorphan]
[1]; Dextromethorphan t1/2
  half-life: 3.2 min
[1]; t1/2 of CYP probe controls
  half-life: 2.9 min
[2]; Dextromethorphan t1/2
  half-life: 19.7 min
[2]; t1/2 of CYP probe controls
  half-life: 14.8 min
[3]; monkey
  half-life: 6.69 min
[3]; non-human primate
  half-life: 5.7 min
[4]; Dextromethorphan t1/2
  half-life: 16.2 min
[4]; t1/2 of CYP probe controls
  half-life: 13.2 min

## CCN(CC)CCCC(C)Nc1ccnc2cc(Cl)ccc12 (stereo not shown) [Chloroquine]
[5]; pH 7.4
  Relative Peak Area/Abundance HLM: 56.7%
[6]
  Clint: 13.0
  Dextromethorphan: compound, t1/2 normalized to dextromethorphan control: 19.1
[6]; monkey
  t1/2: 106.8 min
[7]
  Clint: 6.9
  Dextromethorphan: compound, t1/2 normalized to dextromethorphan control: 10.3
  t1/2: 201.4 min
[8]
  Clint: 10.5
  Dextromethorphan: compound, t1/2 normalized to dextromethorphan control: 42.1
  t1/2: 132.6 min
[9]
  Relative Peak Area/Abundance MLM: 42.5%
[10]
  Relative Peak Area/Abundance GPLM: 43.3%
[11]
  Clint: 29.3
  Dextromethorphan: compound, t1/2 normalized to dextromethorphan control: 2.7
  t1/2: 47.3 min

## COc1ccc2nc3cc(Cl)ccc3c(N)c2n1 [M11]
[5]
  Relative Peak Area/Abundance HLM: 0.2%

## Cc1ncc2n1-c1ccc(Cl)cc1C(c1ccccc1F)=NC2 [Midazolam]
[1]; t1/2 of CYP probe controls
  half-life: 3.75 min
[2]; t1/2 of CYP probe controls
  half-life: 2.35 min
[3]; monkey
  half-life: 4.3 min
[4]; t1/2 of CYP probe controls
  half-life: 1.68 min

## C[C@H]1[C@H](OC(=O)CCC(=O)O)O[C@@H]2O[C@@]3(C)CC[C@H]4[C@H](C)CC[C@@H]1[C@@]24OO3 [Artesunate]
[12]
  effect on toxicity of pyronaridine in the checkboard assay: ameliorates the toxicity of pyronaridine

## NC(=O)c1nc(F)c[nH]c1=O [Favipiravir]
[13]
  survival rates in Sudan virus-infected guinea pigs: 83-100%

## O=C(O)Cc1ccccc1Nc1c(Cl)cccc1Cl [Diclofenac]
[3]; monkey
  half-life: 43.1 min
[11]
  t1/2 of CYP probe controls: 39.6 min

## COc1ccc2[nH]c([S+]([O-])Cc3ncc(C)c(OC)c3C)nc2c1 (stereo not shown) [Omeprazole]
[1]; t1/2 of CYP probe controls
  half-life: 34 min
[2]; t1/2 of CYP probe controls
  half-life: 23.5 min
[3]; monkey
  half-life: 25.5 min

## CCC(CC)COC(=O)[C@H](C)N[P@](=O)(OC[C@H]1O[C@@](C#N)(c2ccc3c(N)ncnn23)[C@H](O)[C@@H]1O)Oc1ccccc1 [Remdesivir]
[14]
  IC50: ~147 nM

B1: mAb114 (antibody, chains of the INN, looked up, V domains shown)
VH: EVQLVESGGGLIQPGGSLRLSCAASGFALRMYDMHWVRQTIDKRLEWVSAVGPSGDTTYADSVKGRFAVSRENAKNSLSLQMNSLTAGDTAIYYCVRSDRGVAGLFDSWGQGILVTVSS
VL: DIQMTQSPSSLSASVGDRITITCRASQAFDNYVAWYQQRPGKVPKLLISAASALHAGVPSRFSGSGSGTHFTLTISSLQPEDVATYYCQNYNSAPLTFGGGTKVEIK
[15]
  overall survival rate in EBOV patients: 66%
